Molecular target: T1, human recombinant Yes [a.a. 2–543 (end)] (Homo sapiens, UniProt P07947)
T1 construct: human recombinant Yes [a.a; 2–543 (end)]; purchased BPS Bioscience 40488
Test: ADP-Glo kinase assay, inhibition rates of Yes phosphorylation activity (first and second screening)
Assay type: biochemical
Conditions: first screening; mean of n = 4 wells; 10 μmol L−1 compound
Description: All inhibitory assays of the phosphorylation activity of Yes were performed in accordance with the Promega Technical Manual for the ADP-Glo™ Kinase Assay (Fitchburg, WI, USA. Catalog number: V9102). The human recombinant Yes [a.a. 2–543 (end)] was purchased from BPS Bioscience (catalog number: 40488). The details of the assay protocol and reagent information are given elsewhere.
The screening was conducted in three steps consisting of the first screening, the second screening, and the IC50 determination, as can be illustrated in Fig. 1b. First, we determined the inhibition rates of the 1,991 compounds. Each compound was placed in 4 wells of a 384-well plate. In total, 80 compounds were assayed on one plate and the other wells were used for positive and negative controls. The compounds were randomly placed on plates so that compounds proposed by one group were not placed on a plate together. A mean of four inhibition rates for each compound was compared to criteria for the first screening. […] Second, the inhibition rates of the screened compounds were determined on one plate using the same procedure of the first screening, where compounds were dissolved from fresh powder. […] Screened compounds were then evaluated for their IC50 values.

T1 sequence (P07947 2-543): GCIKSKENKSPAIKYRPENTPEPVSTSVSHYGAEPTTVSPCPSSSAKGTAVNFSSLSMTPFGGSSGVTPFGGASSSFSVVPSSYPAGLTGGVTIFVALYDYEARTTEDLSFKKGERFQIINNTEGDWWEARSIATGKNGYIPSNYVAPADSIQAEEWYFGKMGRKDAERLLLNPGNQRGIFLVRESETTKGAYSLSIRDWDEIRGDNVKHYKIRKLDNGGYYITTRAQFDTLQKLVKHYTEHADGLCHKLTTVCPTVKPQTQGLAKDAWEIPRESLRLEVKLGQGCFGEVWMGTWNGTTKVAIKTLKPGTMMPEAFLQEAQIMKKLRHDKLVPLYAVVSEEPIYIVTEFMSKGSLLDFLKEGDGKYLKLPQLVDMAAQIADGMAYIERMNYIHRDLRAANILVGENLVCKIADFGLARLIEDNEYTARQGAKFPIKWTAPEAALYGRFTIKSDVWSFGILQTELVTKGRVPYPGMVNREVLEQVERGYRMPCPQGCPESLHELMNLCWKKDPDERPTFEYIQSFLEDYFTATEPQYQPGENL

Row | SMILES | First screening IR (inhibition rate)
1 | CC(C)(C)n1ncc2c(NCCc3nnc4n3CCCC4)ncnc21 [Compound Z1661117530] | 7%
2 | CC(C)c1cc(NS(=O)(=O)c2cc(F)c(Br)cc2F)n[nH]1 [Compound Z1551172092] | 5%
3 | CN(C)c1nc(N)nc(CSCc2nc3ccccc3s2)n1 [Compound Z232651876] | -13%
4 | CCc1c(C(=O)CN2CCCC2c2ccsc2)[nH]c(C)c1C(C)=O (stereo not shown) [Compound Z839968520] | 0%
5 | CC(C)CNC(=O)c1c(N)n(CCc2ccccc2)c2nc3ccccc3nc12 [Compound Z1033301058] | -2%
6 | CCn1ncc2c(C(=O)N(C)C)cc(-c3cccs3)nc21 [Compound Z254580980] | -9%
7 | Cc1cc(/C=C/C(=O)N2CCOCC2)c(C)n1-c1ccnn1C(C)C [Compound Z79434439] | 15%
8 | CC(C(=O)N1CCN(S(=O)(=O)c2ccccc2)CC1)N1CCC(C(N)=O)CC1 (stereo not shown) [Compound Z123938232] | 0%
9 | CC1=Nc2nc(N3CCCCC3)c(C#N)c3c4c(nc(c23)N1)N(c1ccc(C)cc1)C(=O)C4 [Compound Z55516559] | -13%
10 | COc1ccc(-n2cc(-c3ccccc3)c3c(NCCCO)ncnc32)cc1 [Compound Z57455872] | 1%
11 | CCc1nc2ccccc2c(C(=O)OCC(=O)Nc2cc(C(N)=O)cc(C(N)=O)c2)c1C [Compound Z19092990] | 2%
12 | CN1C/C(=C/c2cccc(Br)c2)c2nc3ccccc3c(C(=O)O)c2C1 [Compound Z46114695] | -9%
13 | Cc1nn(CCC#N)c2nc(-c3ccc(Br)cc3)cc(C(F)(F)F)c12 [Compound Z55874673] | -4%
14 | CCCn1c(=O)c2ccccc2n2c(=S)n(CN3CCC(C(=O)Nc4cc(C)ccn4)CC3)nc12 [Compound Z573186768] | -4%
15 | OCCn1ncc2c(NCCc3nnc4ccccn34)ncnc21 [Compound Z990848218] | -6%
16 | COc1ccc(-c2cc(C(=O)Nc3ccc(N4CCN(C)CC4)cc3C)c3ccccc3n2)cc1OC [Compound Z27974061] | 3%
17 | O=[N+]([O-])c1ccc(Nc2cccc(N3CCCC3)c2)c([N+](=O)[O-])c1 [Compound Z729847414] | 20%
18 | Cc1noc(C)c1COc1ccccc1C(=O)NCCSc1ccc(Cl)cc1 [Compound Z89513568] | 17%
19 | CNc1snc(C)c1C(=O)NC(C)c1sc(-c2ccc(F)cc2)nc1C (stereo not shown) [Compound Z1129440199] | 29%
20 | CN(C)c1nc(N)nc(CSCCC(=O)Nc2ccccc2)n1 [Compound Z327260972] | -8%
21 | Cc1c[nH]c(=O)n1-c1cccc(NC(=O)C2CC(=O)N(C)C2c2cccnc2)c1 (stereo not shown) [Compound Z1204166998] | -13%
22 | Cc1ccc(Cn2c(=O)/c(=C/c3ccc(N4CCOCC4)c([N+](=O)[O-])c3)s/c2=C/C(=O)C(C)(C)C)cc1 [Compound Z48770507] | 31%

Row | SMILES | First screening IR (inhibition rate)
23 | CCOC(=O)c1c(NC(=O)CN2CCN(c3cccc(Cl)c3)CC2)sc(Cc2ccc3c(c2)OCO3)c1C [Compound Z30983122] | 12%
24 | CS(=O)(=O)Cc1ccc(CNc2ccnc3c(F)ccc(F)c23)cc1 [Compound Z983418922] | -17%
25 | CCCCN(C1CCS(=O)(=O)C1)S(C)(=O)=O (stereo not shown) [Compound Z237523250] | -21%
26 | O=C(CN1CCN(c2nc(-c3ccccn3)nc3scc(-c4ccccc4)c23)CC1)N1CCCCC1 [Compound Z165261492] | 13%
27 | CCn1c(CNc2ccc3c(C)cc(=O)oc3c2)nc2cc(S(=O)(=O)N3CCCCC3)ccc21 [Compound Z139671368] | -9%
28 | CCN(CC)S(=O)(=O)c1ccc(NC(=O)CNC(=O)C23CC4CC(CC(C4)C2)C3)cc1 [Compound Z31827545] | 8%
29 | Cn1c(=O)[nH]c(=O)c2c1nc(N1CCC(Cc3ccccc3)CC1)n2CCSc1nnnn1-c1ccccc1 [Compound Z239083338] | 2%
30 | Cc1ccc(C(CN2CCOCC2)NC(=O)Cn2cnc3sc(-c4ccccc4)cc3c2=O)cc1 (stereo not shown) [Compound Z146866146] | 6%
31 | Cc1cc(C)c(C(=O)CSc2nnc(-c3c[nH]c4ccccc34)n2CC2CCCO2)c(C)c1 (stereo not shown) [Compound Z18647134] | -1%
32 | NC(=O)c1cc(NC(=O)COC(=O)c2c3c(nc4ccccc24)/C(=C\c2ccccc2Cl)CC3)cc(C(N)=O)c1 [Compound Z18607575] | 10%
33 | O=C(NCc1ccc(-n2cccn2)nc1)c1cc(-c2ccco2)[nH]n1 [Compound Z317736476] | -2%
34 | NC(=O)c1ccc(COC(=O)CCc2ccc3ccccc3n2)c([N+](=O)[O-])c1 [Compound Z166077836] | -4%
35 | Cc1c(C)c(C)c(C(=O)OCC(=O)NCC(=O)N2CCCC2)c(C)c1C [Compound Z291423432] | -6%
36 | CCCCN(C1CCS(=O)(=O)C1)S(=O)(=O)c1ccc(Br)cc1Cl (stereo not shown) [Compound Z223263980] | 5%
37 | Cc1noc(C)c1CCC(=O)Nc1nc2cc(C(F)(F)F)ccc2n1Cc1ccco1 [Compound Z193270258] | 0%
38 | Clc1ccccc1Cn1ncc2c(NCCc3ccccc3)ncnc21 [Compound Z1172235413] | 4%
39 | COc1cc(C(=O)Nc2c(C)cccc2C(C)C)ccc1OCc1c(C)noc1C [Compound Z26400530] | 1%
40 | CN(C)S(=O)(=O)CCCS(=O)(=O)Cc1cccc(F)c1 [Compound Z1127660834] | 6%
41 | CC(Sc1nnc(-c2c[nH]c3ccccc23)n1CC1CCCO1)C(=O)Nc1ccc(N(C)C)cc1 (stereo not shown) [Compound Z18647898] | 0%
42 | Cc1nc(NC(=O)c2cccc(NC(N)=O)c2)sc1SCC#N [Compound Z1000171966] | -2%
43 | N#C/C(=C(/O)CN1CCN(S(=O)(=O)c2ccccc2C#N)CC1)c1nc2ccccc2[nH]1 [Compound Z48805202] | -4%
44 | C#CCN(C1CCS(=O)(=O)C1)S(=O)(=O)c1ccccc1F (stereo not shown) [Compound Z734126534] | -10%

Row | SMILES | First screening IR (inhibition rate)
45 | O=C(COc1cccnc1[N+](=O)[O-])Nc1ccc2c(c1)OCCO2 [Compound Z24778709] | 9%
46 | CN(Cc1ccc(C(=O)NCC(F)(F)F)cc1)c1cc(Cl)nc(N)n1 [Compound Z328693166] | 10%
47 | O=C1NCc2cccc(NS(=O)(=O)c3c(Cl)ccnc3Cl)c21 [Compound Z1556993367] | -3%
48 | CCN(CC)S(=O)(=O)c1ccc(N2CCN(S(=O)(=O)c3ccccc3C#N)CC2)nc1 [Compound Z31169752] | 6%
49 | C=CCNc1nc(C(=O)OCc2csc(-c3ccccc3)n2)cs1 [Compound Z17964966] | 18%
50 | N#CCCn1ncc2c(NCc3ccc4c(c3)OCCO4)ncnc21 [Compound Z990838348] | 2%
51 | Cc1cn2nc(NCc3ccc(N4CCNC(=O)C4)cc3)sc2n1 [Compound Z397897560] | 39%
52 | CC(Sc1nc2ncccn2n1)C(=O)Nc1ccc(Cl)cc1Cl (stereo not shown) [Compound Z207321514] | 5%
53 | CC(NC(=O)Cn1nc(-c2ccccc2)ccc1=O)c1nc2ccccc2[nH]1 (stereo not shown) [Compound Z647256318] | 5%
54 | CN(CCCC(=O)O)S(=O)(=O)c1cc(S(C)(=O)=O)ccc1Cl [Compound Z353969056] | 44%
55 | NC(=O)C1CCN(C(=O)CNc2cc(Cl)ccc2Sc2ccc(F)cc2)CC1 [Compound Z140497072] | -9%
56 | Cc1ccccc1Nc1nc(N)nc(CSc2ccccc2Cl)n1 [Compound Z18459341] | 17%
57 | CN(C)S(=O)(=O)CCCS(=O)(=O)c1nccn1C [Compound Z1134191724] | 22%
58 | CSc1ccc(CSCc2nc(N)nc(Nc3ccc(F)cc3)n2)cc1 [Compound Z135100070] | -6%
59 | Cl.Oc1ccc(-c2cc(-c3ccccc3)c3ccccc3n2)cc1 [Compound Z48951045] | 24%
60 | O=S(=O)(c1c(Cl)cccc1Cl)N1CCN(Cc2nc(-c3cccc(Cl)c3)no2)CC1 [Compound Z90231169] | -8%
61 | CCC(C)(C)C1C/C(=C/c2cc(Br)c(O)c(OC)c2)c2nc3ccccc3c(C(=O)O)c2C1 (stereo not shown) [Compound Z46116622] | 5%
62 | Cc1[nH]c(=O)[nH]c(=O)c1CCC(=O)N1CCC(CCc2ccccc2)CC1 [Compound Z219953062] | 4%
63 | Cc1cccc(-c2[nH]ncc2CNC(C)C(C)n2cccn2)c1 (stereo not shown) [Compound Z1143064210] | -7%
64 | CCN(C(=O)CN1CCN(Cc2ccc3c(c2)OCO3)CC1)c1c(N)n(Cc2ccccc2)c(=O)[nH]c1=O [Compound Z46204583] | 4%
